Measurements published in ChEMBL document CHEMBL4406819, “Targeting the subpocket in xanthine oxidase: Design, synthesis, and biological evaluation of 2-[4-alkoxy-3-(1H-tetrazol-1-yl) phenyl]-6-oxo-1,6-dihydropyrimidine-5-carboxylic acid derivatives” (Eur J Med Chem, 2019).
Activity calls are given as the source filed them. The calls are words filed in the database; no cut-off is given here.

Experiments:
Rattus norvegicus [1] = assay: Hypouricemic activity in Sprague-Dawley rat model of potassium oxonate-induced acute hyperuricemia assessed as decrease in serum uric acid level at 10 mg/kg, ig administered 1 hr before potassium oxonate challenge and measured after 3 hrs
Rattus norvegicus [2] = assay: Hypouricemic activity in Sprague-Dawley rat model of potassium oxonate-induced acute hyperuricemia assessed as decrease in serum uric acid level at 5 mg/kg, ig administered 1 hr before potassium oxonate challenge and measured after 3 hrs

With Oc1ncnc2[nH]ncc12 the Activity (Rattus norvegicus [1]) was “Active”.

In the case of Cc1nc(-c2ccc(OCC(C)C)c(C#N)c2)sc1C(=O)O, the Activity (Rattus norvegicus [2]) is reported as “Active”.
